The values below come from patent US4183931A, “2-Ketoalkyl-4(3H)-quinazolinones” (Research Corporation, priority 1977, dated 1980).

Where two headings read alike, the source gives them in different places.

The nature of data set [1]: NPP lethality (estimated LD50). Particulars: mouse, in vivo, ip.
Data set [2] is described as follows: NINCDS Maximal Electroshock Seizure Test (MES). Particulars: for minimal effective dose: read-out: MES: dosage level that elicited protection. The data set is classed as in vivo, mice. As for the experimental part:
1. Neurological Activity Tests. […] Compounds were evaluated for anticonvulsant activity in two seizure models, the maximal electroshock seizure (MES) test and the subcutaneous pentylenetetrazol (Metrazol) seizure threshold (scMet) test.
The Maximal Electroshock Seizure Test was performed according to the method described by Swinyard and coworkers,* wherein a drop of 0.9% saline is instilled in each eye prior to application of corneal electrodes. Seizures are elicited with a 50 Hz alternating current of 50 mA (5 to 7 times that necessary to elicit minimal electroshock seizures) delivered for 0.2 sec via corneal electrodes. This stimulus will produce a maximal seizure in all normal mice. The maximal seizure typically consists of a short period of initial tonic flexion and a prolonged period of hind limb tonic extension, followed by terminal clonus. The seizure lasts about 22 seconds. Abolition of the hind limb tonic extensor component of the seizure is defined as protection and indicates anticonvulsant activity in the test compound.
The ability of a compound to prevent maximal electroshock seizures is believed to correlate with its ability to prevent the spread of seizure discharge through neural tissue. Activity against maximal electroshock seizures is thought to indicate potential efficacy in the treatment of major motor (grand mal) seizures. […] Selective action in the test is believed to indicate potential efficacy against absence (petit mal) seizures.
As described earlier, the MES, scMet and Rotorod tests were performed one-half hour and four hours after administration of each compound.
In the Secondary Evaluation, median effective doses (ED50) are determined in the MES, scMet and Rotorod assays using the procedures defined in Pharmacology, 95, 99-113 (1949).
Separate groups of animals are used for each time period. The times of peak toxic and anticonvulsant effect are taken from the resulting graph of percent of animals responding vs. time, and the determinations of median effective doses are performed at those times.

Data set [3] is described as follows: Neuropharmacological Profile (NPP): general CNS observational screen (depression, righting reflex, ataxia).
The mark [4] stands for this setting: at 100 mg/kg, i.p., mice, score 0-8.

Regarding `O=C(Cc1nc2ccccc2c(=O)n1-c1ccccc1Cl)c1ccncc1` [IVd, 2-[2-Oxo-2-(4-pyridyl)ethyl]-3-o-chlorophenyl-4(3H)-quinazolinone], in data set [1], the LD50 at 48 h was 237 mg/kg. Besides, the minimal effective dose in data set [2] (Mus musculus, ip, after 0.5 hr) came out at 300 mg/kg. Further, the minimal effective dose in data set [2] (Mus musculus, ip, after 4 hr (value in parentheses)) was found to be 100 mg/kg. The compound also displayed a 50% effective dose (ED50) in data set [2] (Mus musculus, ip, secondary evaluation, at time of peak effect) of 33.5 mg/kg. Moreover, in data set [2] (secondary evaluation), the “MES protective index compared with methaqualone” value is recorded as “approximately four-fold higher”, the “PI MES (Protective Index = TD50/ED50)” value amounted to 4.08 and the “potency against electroshock-induced (MES) seizures compared with methaqualone” value is listed as “more potent”. For the same compound, in data set [2] (vs Ethotoin, Mephenytoin, Phenobarbital, Metharbital, Trimethadione, Paramethadione, Methsuximide, Phensuximide, Diazepam, Clonazepam), the “MES protective index compared with commercial agents” value is on record as “higher MES protective index”. For the same compound, in data set [3] (NPP summary), the “behavioral activity compared with methaqualone” value is reported as “approaches that of methaqualone”. In data set [3] (at 10 mg/kg, i.p., mice, score 0-8), the Depression came to 2. For the same compound, the “CNS Depression” value in data set [3] (at 30 mg/kg (value in parentheses), i.p., mice, score 0-8) turned out to be 2. Also, in data set [3] (setting [4]), the Ataxia came out at 6, the “CNS Depression” value stood at 6 and the Righting reflex amounted to 8.
